# EPA's ToxValDB 9.5 (doi:10.2903/j.efsa.2006.61r)
# Key:
# Anas platyrhynchos = details: acute; oral; unspecified; mortality
# Apis mellifera = details: acute, mortality
# Bibionidae = details: chronic/long-term; duration: 28 days; seedling emergence
# Colinus virginianus = details: for LD50: acute, oral, mortality
# Daphnia magna = details: chronic/long-term; duration: 21 days; reproduction
# Oncorhynchus mykiss = details: acute; duration: 96 hours; mortality
# Pontoscolex corethrurus = details: chronic/long-term
# Rattus norvegicus = details: for LD50: acute, oral, mortality
# Tagia sp. = details: acute; duration: 14 days; mortality
# Trichogramma cacoeciae = details: not reported
smiles,measurement,setting,value
Cc1cc(C)nc(Nc2ccccc2)n1 [Pyrimethanil],LD50,Anas platyrhynchos,> 2000 mg/kg
same,LD50,Apis mellifera; dermal,> 100 µg/piece
same,LD50,"Apis mellifera; duration: 48 hours, oral, unspecified",> 100 µg/piece
same,NOEC,Bibionidae,4 mg/L
same,LD50,Colinus virginianus; diet,> 874 mg/kg
same,LD50,Colinus virginianus,> 2000 mg/kg
same,NOAEL,Colinus virginianus; reproduction developmental,96 mg/kg-day
same,NOEC,Daphnia magna,0.94 mg/L
same,LEL,"Encarsia formosa; acute, duration: 6 days, mortality",1000 g/ha
same,LEL,"Encarsia formosa; not reported, reproduction",1000 g/ha
same,LC50,Oncorhynchus mykiss,10.6 mg/L
same,NOEC,Pontoscolex corethrurus,4.12 mg/kg
same,LD50,Rattus norvegicus; F,5970 mg/kg
same,LD50,Rattus norvegicus; M,4150 mg/kg
same,NOAEL,"Rattus norvegicus; chronic, duration: 2 years, clinical chemistry",17 mg/kg-day
same,NOAEL,"Rattus norvegicus; reproduction developmental, M, body weight",18.4 mg/kg-day
same,NOAEL,"Rattus norvegicus; subchronic, duration: 90 days, organ weight",5.4 mg/kg-day
same,LC50,Tagia sp.,626 mg/kg
same,LEL,Trichogramma cacoeciae; mortality,1000 g/ha
same,LEL,Trichogramma cacoeciae; reproduction,1000 g/ha
